The test concerns P388 leukemia ip, CD2F1 mice, survival T/C. Description: NCI In Vivo Anticancer Drug Screen. Data for tumor model P388 Leukemia (intraperitoneal) in CD2F1 (CDF1) mice. Particulars: endpoint: median survival time, higher = longer survival. A digest of the protocol: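 Mice carrying the transplanted tumor received test compound or vehicle. Survival was recorded in each group, and the value is the treated-group measurement divided by that of the vehicle-treated control group.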

[1] abbreviates: dose: 60.0 mg/kg/injection, schedule: Q01DX005 (ip), vehicle: Klucel (hydroxypropylcellulose) (HPC).
The mark [2] stands for this setting: dose: 200.0 mg/kg/injection, schedule: Q01DX005 (ip), vehicle: Klucel (hydroxypropylcellulose) (HPC).
Where [3] appears, read: dose: 50.0 mg/kg/injection, schedule: Q01DX009 (ip), vehicle: saline with Tween-80.
Setting [4] is: dose: 100.0 mg/kg/injection, schedule: Q01DX009 (ip), vehicle: saline with Tween-80.
[5] abbreviates: dose: 100.0 mg/kg/injection, schedule: Q04DX003 (ip), vehicle: saline.
[6] abbreviates: dose: 200.0 mg/kg/injection, schedule: Q04DX003 (ip), vehicle: saline.
Setting [7] is: dose: 400.0 mg/kg/injection, schedule: Q04DX003 (ip), vehicle: saline.
Where [8] appears, read: dose: 50.0 mg/kg/injection, schedule: Q01DX005 (ip), vehicle: saline with Tween-80.
The mark [9] stands for this setting: dose: 100.0 mg/kg/injection, schedule: Q01DX005 (ip), vehicle: saline with Tween-80.
Where [10] appears, read: dose: 200.0 mg/kg/injection, schedule: Q01DX005 (ip), vehicle: saline with Tween-80.
Where [11] appears, read: dose: 200.0 mg/kg/injection, schedule: Q01DX009 (ip), vehicle: saline with Tween-80.
Where [12] appears, read: dose: 400.0 mg/kg/injection, schedule: Q01DX009 (ip), vehicle: saline with Tween-80.
Where [13] appears, read: dose: 50.0 mg/kg/injection, schedule: Q01DX005 (ip), vehicle: Klucel (hydroxypropylcellulose) (HPC).
Where [14] appears, read: dose: 100.0 mg/kg/injection, schedule: Q01DX005 (ip), vehicle: Klucel (hydroxypropylcellulose) (HPC).
[15] abbreviates: dose: 100.0 mg/kg/injection, schedule: Q04DX002 (ip), vehicle: saline.
Setting [16] is: dose: 200.0 mg/kg/injection, schedule: Q04DX002 (ip), vehicle: saline.
Setting [17] is: dose: 400.0 mg/kg/injection, schedule: Q04DX002 (ip), vehicle: saline.

The source of these data is PubChem BioAssay AID330 (DTP/NCI, 2004).

The structures appear in SMILES notation. “And” between values parts separate entries of the source, which are not always exact repeats. Identical values can stand only once. Toxic doses and inconclusive results are not listed.

With `C=Cc1cc(OC)c2c(c1)c(=O)oc1c2cc(OC)c2c(O)ccc(C3OC(C(C)O)C(O)C3O)c21` (configuration not stated), the T/C (dose: 2.0 mg/kg/injection, schedule: Q04DX003 (ip), vehicle: DMSO) is 108 % of control; the T/C (dose: 4.0 mg/kg/injection, schedule: Q04DX003 (ip), vehicle: DMSO) was 114 % of control; the T/C (dose: 8.0 mg/kg/injection, schedule: Q04DX003 (ip), vehicle: DMSO) was 123 % of control; the T/C (dose: 15.0 mg/kg/injection, schedule: Q01DX005 (ip), vehicle: Klucel (hydroxypropylcellulose) (HPC)) is 119 % of control; the T/C (dose: 16.0 mg/kg/injection, schedule: Q04DX003 (ip), vehicle: DMSO) is 155 % of control; the T/C (dose: 30.0 mg/kg/injection, schedule: Q01DX005 (ip), vehicle: Klucel (hydroxypropylcellulose) (HPC)) was 107 % of control. Also, the T/C (dose: 32.0 mg/kg/injection, schedule: Q04DX003 (ip), vehicle: DMSO) was 155 % of control; the T/C under setting [1] was 120 % of control; the T/C under setting [2] was 157 % of control; the T/C (dose: 400.0 mg/kg/injection, schedule: Q01DX005 (ip), vehicle: Klucel (hydroxypropylcellulose) (HPC)) is 98 % of control.
On to `COC1/C=C\OC2(C)Oc3c(C)c(O)c4c(O)c(c(/C=N/N(Cc5ccccc5)C56CC7CC(CC(C7)C5)C6)c(O)c4c3C2=O)NC(=O)/C(C)=C\C=C\C(C)C(O)C(C)C(O)C(C)C(OC(C)=O)C1C` (configuration not stated), for which the T/C was 102 % of control under setting [3] and 100 % of control under setting [4].
`O=C(Cc1nc2ccccc2n2nnnc12)NCCO`: the T/C is, setting by setting: (dose: 100.0 mg/kg/injection, schedule: Q04DX002 (ip), vehicle: Klucel + Tween-80) 99 % of control; (dose: 200.0 mg/kg/injection, schedule: Q04DX002 (ip), vehicle: Klucel + Tween-80) 88 % of control; (dose: 400.0 mg/kg/injection, schedule: Q04DX002 (ip), vehicle: Klucel + Tween-80) 92 % of control.
With `CC1=CCC(C(C)C)C=C1` (configuration not stated), the T/C is, setting by setting: under setting [4], 100 % of control; under setting [5], 105 % of control; under setting [6], 100 % of control; under setting [7], 105 % of control.
`CCOc1nc(N)nc(C)c1N=Nc1ccc(Cl)cc1`: the T/C reads like this: (dose: 60.0 mg/kg/injection, schedule: Q01DX005 (ip), vehicle: Klucel + Tween-80) 100 % of control; (dose: 120.0 mg/kg/injection, schedule: Q01DX005 (ip), vehicle: Klucel + Tween-80) 101 % of control.
Turning to `CCN(CC)CCCC(C)Nc1cc(O)c2c(c1O)C(=O)c1ccccc1C2=O` (configuration not stated), the T/C was 102 % of control under setting [8], 98 % of control under setting [9] and 111 % of control under setting [10].
For the compound `Ic1ccc(N=Cc2cccs2)cc1`, the T/C was 106 % of control under setting [3], 108 % of control under setting [4], 123 % of control under setting [11] and 115 % of control under setting [12].
Take `CN(C(=O)c1ccccc1)C1CCCC(=O)CC1` (configuration not stated): the T/C runs as follows: (dose: 25.0 mg/kg/injection, schedule: Q01DX005 (ip), vehicle: Klucel (hydroxypropylcellulose) (HPC)) 105 % of control; under setting [13], 100 % of control; under setting [14], 99 % of control; under setting [2], 97 % of control.
For the compound `Cc1cc2nc(SCC(N)=O)nn2c(C)n1`, the T/C runs as follows: (dose: 60.0 mg/kg/injection, schedule: Q01DX005 (ip), vehicle: saline with Tween-80) 100 % of control; (dose: 120.0 mg/kg/injection, schedule: Q01DX005 (ip), vehicle: saline with Tween-80) 100 % of control; (dose: 240.0 mg/kg/injection, schedule: Q01DX005 (ip), vehicle: saline with Tween-80) 99 % of control.
As for `CCN(CC)c1ccc2cc(-c3nc4ccccc4[nH]3)c(=O)oc2c1`, the T/C (dose: 12.5 mg/kg/injection, schedule: Q01DX009 (ip), vehicle: saline with Tween-80) was 96 % of control; the T/C (dose: 25.0 mg/kg/injection, schedule: Q01DX009 (ip), vehicle: saline with Tween-80) was 95 % of control; the T/C under setting [3] is 88 % of control and 98 % of control; the T/C under setting [4] was 95 % of control.
Take `COc1cc2c(cc1OC)C(C)P(C)(=O)CC2O` (configuration not stated): the T/C (dose: 100.0 mg/kg/injection, schedule: Q04DX002 (ip), vehicle: saline with Tween-80) was 100 % of control; the T/C under setting [15] was 109 % of control; the T/C (dose: 200.0 mg/kg/injection, schedule: Q04DX002 (ip), vehicle: saline with Tween-80) was 107 % of control; the T/C under setting [16] was 98 % of control; the T/C (dose: 400.0 mg/kg/injection, schedule: Q04DX002 (ip), vehicle: saline with Tween-80) is 100 % of control; the T/C under setting [17] is 98 % of control.
On to `CC(=O)CC(=O)CCC(=O)O`, for which the T/C reads like this: (dose: 25.0 mg/kg/injection, schedule: Q01DX009 (ip), vehicle: saline) 100 % of control; (dose: 50.0 mg/kg/injection, schedule: Q01DX009 (ip), vehicle: saline) 105 % of control; (dose: 100.0 mg/kg/injection, schedule: Q01DX009 (ip), vehicle: saline) 110 % of control; (dose: 200.0 mg/kg/injection, schedule: Q01DX009 (ip), vehicle: saline) 117 % of control; (dose: 400.0 mg/kg/injection, schedule: Q01DX009 (ip), vehicle: saline) 94 % of control.
Consider `CC(OC(=O)C1C2C=CC(C2)C1C(=O)O)c1cccnc1` (configuration not stated), for which the T/C is 97 % of control under setting [13], 100 % of control under setting [14] and 98 % of control under setting [2].
With `OC(c1ccccc1)C1(c2ccccc2)CCN(Cc2ccccc2)CC1` (configuration not stated), the T/C was 100 % of control under setting [8], 100 % of control under setting [9] and 96 % of control under setting [10].
Take `CC1=C(C)C2(C)S(=O)Nc3ccccc3C12C` (configuration not stated): the T/C by setting is: under setting [1], 99 % of control; (dose: 120.0 mg/kg/injection, schedule: Q01DX005 (ip), vehicle: Klucel (hydroxypropylcellulose) (HPC)) 99 % of control; (dose: 240.0 mg/kg/injection, schedule: Q01DX005 (ip), vehicle: Klucel (hydroxypropylcellulose) (HPC)) 87 % of control.
Take `O=C1CCCC1(c1ccccc1)c1ccccc1`: the T/C runs as follows: under setting [4], 90 % of control; under setting [11], 95 % of control; under setting [12], 95 % of control.
As to `CSCCC([NH-])C(=O)O.CSCCC([NH-])C(=O)O.[Cu+2]` (configuration not stated), the T/C (dose: 3.12 mg/kg/injection, schedule: Q01DX009 (ip), vehicle: saline) was 102 % of control; the T/C (dose: 6.25 mg/kg/injection, schedule: Q01DX009 (ip), vehicle: Klucel (hydroxypropylcellulose) (HPC)) was 94 % of control; the T/C (dose: 6.25 mg/kg/injection, schedule: Q01DX009 (ip), vehicle: saline) was 94 % of control; the T/C (dose: 12.5 mg/kg/injection, schedule: Q01DX009 (ip), vehicle: Klucel (hydroxypropylcellulose) (HPC)) is 94 % of control; the T/C (dose: 12.5 mg/kg/injection, schedule: Q01DX009 (ip), vehicle: saline) is 100 % of control.
With `COc1cc2cc3c(nc2cc1OC)OC(=O)/C3=C\c1ccccc1`, the T/C reads like this: under setting [8], 99 % of control; under setting [9], 98 % of control; under setting [10], 103 % of control.
In the case of `Cn1c(=O)c2[nH]c(-n3ccc(=N)cc3)nc2n(C)c1=O`, the T/C was 103 % of control under setting [5], 99 % of control under setting [6] and 99 % of control under setting [7].
Regarding `CCCCCCC(=O)/C=C/c1ccc(OC)c(OC)c1OC`, the T/C under setting [3] was 96 % of control, the T/C under setting [4] was 96 % of control and the T/C under setting [11] was 102 % of control.
For `C=C[Se](=C(C#N)C#N)c1ccccc1` (configuration not stated), the T/C is 111 % of control (dose: 25.0 mg/kg/injection, schedule: Q04DX002 (ip), vehicle: saline); 104 % of control (dose: 50.0 mg/kg/injection, schedule: Q04DX002 (ip), vehicle: saline); 99 % of control and 101 % of control under setting [15]; 110 % of control under setting [16]; 118 % of control under setting [17].
As to `CC(C)(C)C(CCC(=O)O)CC(=O)O` (configuration not stated), the T/C is 100 % of control under setting [3]; 95 % of control under setting [4]; 95 % of control under setting [5]; 100 % of control under setting [11]; 91 % of control under setting [6].
With `O=C(N/N=C/c1cc(Br)cc(Br)c1[O-])c1ccccc1.O=C(N/N=C/c1cc(Br)cc(Br)c1[O-])c1ccccc1.[Co+2]`, under “dose: 100.0 mg/kg/injection, schedule: Q01DX001 (ip), vehicle: saline with Tween-80”, the T/C was 86 % of control.
